US11957687B2 (REGENERON PHARMACEUTICALS, INC., priority 2019, dated 2024)

What was measured:
Type in all cases: biochemical
HSD17B13 = HSD17B13 (Homo sapiens (Human), UniProt Q7Z5P4); test: HSD17B13 enzymatic inhibition assay (150 nM or 50 nM HSD17B13); details: 50 nM HSD17B13; read-out: Inhibition of 50 nM of HSD17B13 IC50
HSD17B1 = HSD17B1 (Homo sapiens (Human), UniProt P14061); test: HSD17B1 enzymatic blocking assay; details: 25 μM Estradiol, 500 μM NAD; read-out: Inhibition of HSD17B1 IC50
Protocol: To screen compounds of the disclosure for their ability to block HSD17B1 function, an enzymatic blocking assay was performed. For the assay, HSD17B1 activity was measured by detecting NADH formation from oxidation of Estradiol using a NADH Glo luminescence assay (Promega, #Cat. No. G9062). […] Compounds were incubated with the enzyme for 30 minutes at room temperature. […] DMSO at a concentration of 0.5% was used as a negative control and a ‘no substrate’ control was used a positive control in the assay. Detection reagent was then added as per manufacturer's instructions, and the plate was subsequently incubated in the dark for 1 hour at room temperature, NADH generated was detected in the luminescence mode on the Envision Perkin Elmer plate reader. The IC50 values were determined using Dotmatics analysis software.

HSD17B2 = HSD17B2 (Homo sapiens (Human), UniProt P37059); test: HSD17B2 enzymatic blocking assay; details: 1.8 μM Estradiol, 650 μM NAD; read-out: Inhibition of HSD17B2 IC50
Protocol: To screen compounds of the disclosure for their ability to block HSD17B2 function, an enzymatic blocking assay was performed. For the assay, HSD17B2 activity was measured by detecting NADH formation from oxidation of Estradiol using a NADH Glo luminescence assay (Promega, #Cat. No. G9062). Compounds of the disclosure were evaluated in a dose titration assay where the compounds were titrated at 10-point dose curve using an Echo-555 liquid handling dispenser. HSD17B2 (SEQ ID NO: 3, expressed in mammalian cells) was added at a final concentration of 2 ng/μL in a buffer containing 50 mM Tris-HCl, pH 7.5, Pluronic F-127 0.05%, Tween20 0.01%, BSA 0.01% into a low volume white 384-well assay plate. Compounds were incubated with the enzyme for 15 min at 20° C. The assay reaction was then initiated by addition of 1.8 μM Estradiol substrate (Sigma, catalog #E2758-250MG, CAS: 50-28-2) and 650 μM NAD co-factor, and the reaction mixture was incubated for 45 min at 20° C. DMSO at a concentration of 0.5% was used as a negative control and a ‘no substrate’ control was used a positive control in the assay. Detection reagent was then added as per manufacturer's instructions, and the plate was subsequently incubated in the dark for 1 hour at room temperature, NADH generated was detected in the luminescence mode on the Envision Perkin Elmer plate reader. The IC50 values were determined using Dotmatics analysis software.

HSD17B13, sequence (Q7Z5P4 other isoform, or with tags, fused parts or gaps): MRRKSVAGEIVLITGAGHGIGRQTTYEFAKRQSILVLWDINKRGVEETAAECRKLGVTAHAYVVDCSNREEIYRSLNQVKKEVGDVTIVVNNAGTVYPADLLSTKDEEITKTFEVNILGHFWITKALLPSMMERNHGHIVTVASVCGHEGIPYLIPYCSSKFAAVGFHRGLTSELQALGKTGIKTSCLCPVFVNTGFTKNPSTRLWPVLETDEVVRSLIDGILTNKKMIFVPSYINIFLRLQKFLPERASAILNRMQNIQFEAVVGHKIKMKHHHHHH
HSD17B2, sequence (P37059 other isoform, or with tags, fused parts or gaps): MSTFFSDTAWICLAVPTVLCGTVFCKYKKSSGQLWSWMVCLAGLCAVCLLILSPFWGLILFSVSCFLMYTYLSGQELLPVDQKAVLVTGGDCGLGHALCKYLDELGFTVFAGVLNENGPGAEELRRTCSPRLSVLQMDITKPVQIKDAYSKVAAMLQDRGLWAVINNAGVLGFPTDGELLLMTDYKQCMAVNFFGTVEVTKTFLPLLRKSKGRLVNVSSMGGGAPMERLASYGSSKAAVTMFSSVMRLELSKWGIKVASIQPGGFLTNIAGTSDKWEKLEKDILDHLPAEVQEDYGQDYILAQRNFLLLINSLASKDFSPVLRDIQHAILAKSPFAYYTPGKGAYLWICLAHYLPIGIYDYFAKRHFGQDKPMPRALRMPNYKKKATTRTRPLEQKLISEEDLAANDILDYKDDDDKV
HSD17B1, sequence (P14061 other isoform, or with tags, fused parts or gaps): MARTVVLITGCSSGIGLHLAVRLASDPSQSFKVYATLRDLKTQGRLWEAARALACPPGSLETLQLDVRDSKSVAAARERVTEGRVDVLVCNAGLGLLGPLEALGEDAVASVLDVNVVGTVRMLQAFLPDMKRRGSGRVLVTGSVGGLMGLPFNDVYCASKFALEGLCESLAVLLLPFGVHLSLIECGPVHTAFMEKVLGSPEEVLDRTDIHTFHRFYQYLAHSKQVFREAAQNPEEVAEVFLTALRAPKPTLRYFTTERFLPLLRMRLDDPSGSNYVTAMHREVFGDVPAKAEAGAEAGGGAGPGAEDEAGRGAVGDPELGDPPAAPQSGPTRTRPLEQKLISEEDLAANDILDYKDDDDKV

IC50 (HSD17B13) [µM] | IC50 (HSD17B1) [µM] | IC50 (HSD17B2) [µM] | Compound
0.06 | 28.7 | 64 | CCCc1cc(C(=O)NC2c3ccc(Cl)cc3Oc3cc(Cl)ccc32)c(=O)[nH]c1C(F)(F)F [Compound 178, N-(3,6-dichloro-9H-xanthen-9-yl)-2-oxo-5-propyl-6-(trifluoromethyl)-1,2-dihydropyridine-3-carboxamide]
0.02 | 5.16 | 10.3 | C=Cc1cc(C(=O)NC2c3ccc(C)cc3Oc3cc(C)ccc32)c(=O)[nH]c1C(F)(F)F [Compound 182, N-(3,6-dimethyl-9H-xanthen-9-yl)-2-oxo-6-(trifluoromethyl)-5-vinyl-1,2-dihydropyridine-3-carboxamide]
0.03 | 4.55 | 9.61 | Cc1ccc2c(c1)Oc1cc(C)ccc1C2NC(=O)c1cc(C2=CCCCC2)c(C(F)(F)F)[nH]c1=O [Compound 183, 5-(cyclohex-1-en-1-yl)-N-(3,6-dimethyl-9H-xanthen-9-yl)-2-oxo-6-(trifluoromethyl)-1,2-dihydropyridine-3-carboxamide]
0.09 | 19.2 | 17.4 | Cc1ccc2c(c1)Oc1cc(C)ccc1C2NC(=O)c1cnc(C(F)(F)F)[nH]c1=O [Compound 194, N-(3,6-dimethyl-9H-xanthen-9-yl)-6-oxo-2-(trifluoromethyl)-1,6-dihydropyrimidine-5-carboxamide]
2.11 | 27.9 | > 100 | CCCc1cc(CCC)cc(NC(=O)c2ccc(C(F)(F)F)[nH]c2=O)c1 [Compound 271, N-(3,5-dipropylphenyl)-2-oxo-6-(trifluoromethyl)-1,2-dihydropyridine-3-carboxamide]
0.27 | 8.39 | 9.16 | COc1ccc2c(c1)Sc1cc(OC)ccc1C2NC(=O)c1ccc(C(F)F)[nH]c1=O [Compound 274, 6-(difluoromethyl)-N-(3,6-dimethoxy-9H-thioxanthen-9-yl)-2-oxo-1,2-dihydropyridine-3-carboxamide]
0.14 | 18 | 10.2 | CCC1CCC(NC(=O)c2ccc(C(F)(F)F)[nH]c2=O)c2ccc(C)cc21 (stereo not drawn) [Compound 300, N-(4-ethyl-6-methyl-1,2,3,4-tetrahydronaphthalen-1-yl)-2-oxo-6-(trifluoromethyl)-1,2-dihydropyridine-3-carboxamide]
0.16 | > 30 | 23 | Cc1ccc2c(c1)C(C)CCC2NC(=O)c1ccc(C(F)(F)F)[nH]c1=O (stereo not drawn) [Compound 302, N-(4,6-dimethyl-1,2,3,4-tetrahydronaphthalen-1-yl)-2-oxo-6-(trifluoromethyl)-1,2-dihydropyridine-3-carboxamide]
0.07 | 15.4 | 16.9 | CCCc1sc2cc(C)ccc2c1NC(=O)c1ccc(C(F)(F)F)[nH]c1=O [Compound 308, N-(6-methyl-2-propylbenzo[b]thiophen-3-yl)-2-oxo-6-(trifluoromethyl)-1,2-dihydropyridine-3-carboxamide]
0.08 | 14.3 | 22.6 | CCc1sc2cc(C)ccc2c1NC(=O)c1ccc(C(F)(F)F)[nH]c1=O [Compound 309, N-(2-ethyl-6-methylbenzo[b]thiophen-3-yl)-2-oxo-6-(trifluoromethyl)-1,2-dihydropyridine-3-carboxamide]
0.22 | > 30 | 8.32 | COc1ccc2c(c1)Sc1cccnc1C2NC(=O)c1ccc(C(F)(F)F)[nH]c1=O (stereo not drawn) [Compound 321, N-(7-methoxy-10H-thiochromeno[3,2-b]pyridin-10-yl)-2-oxo-6-(trifluoromethyl)-1,2-dihydropyridine-3-carboxamide]
0.22 | > 30 | 35.5 | COc1ccc2c(c1)Sc1cnccc1C2NC(=O)c1ccc(C(F)(F)F)[nH]c1=O (stereo not drawn) [Compound 323, N-(8-methoxy-5H-thiochromeno[2,3-c]pyridin-5-yl)-2-oxo-6-(trifluoromethyl)-1,2-dihydropyridine-3-carboxamide]
0.04 | > 30 | 56.4 | Cc1cnc2c(c1)Oc1ccccc1C2NC(=O)c1ccc(C(F)(F)F)[nH]c1=O (stereo not drawn) [Compound 324, N-(3-methyl-10H-chromeno[3,2-b]pyridin-10-yl)-2-oxo-6-(trifluoromethyl)-1,2-dihydropyridine-3-carboxamide]
0.11 | 4.16 | > 100 | Cc1ccc2c(c1)Oc1cnccc1C2NC(=O)c1ccc(C(F)(F)F)[nH]c1=O (stereo not drawn) [Compound 328, N-(8-methyl-5H-chromeno[2,3-c]pyridin-5-yl)-2-oxo-6-(trifluoromethyl)-1,2-dihydropyridine-3-carboxamide]
0.08 | > 30 | 22.1 | Cc1ccc2c(c1)Oc1ccncc1C2NC(=O)c1ccc(C(F)(F)F)[nH]c1=O (stereo not drawn) [Compound 330, N-(7-methyl-10H-chromeno[3,2-c]pyridin-10-yl)-2-oxo-6-(trifluoromethyl)-1,2-dihydropyridine-3-carboxamide]
0.51 | > 30 | 29.3 | CCC[C@@H]1Oc2ccc(C)cc2[C@@H]1NC(=O)c1ccc(C(F)(F)F)[nH]c1=O [Compound 354, N-((2S,3S)-5-methyl-2-propyl-2,3-dihydrobenzofuran-3-yl)-2-oxo-6-(trifluoromethyl)-1,2-dihydropyridine-3-carboxamide]
0.52 | > 30 | 37.6 | CCC1Oc2ccc(C)cc2C1NC(=O)c1ccc(C(F)(F)F)[nH]c1=O (stereo not drawn) [Compound 355, N-(2-ethyl-5-methyl-2,3-dihydrobenzofuran-3-yl)-2-oxo-6-(trifluoromethyl)-1,2-dihydropyridine-3-carboxamide]
0.16 | > 30 | > 100 | Cc1ccc2c(c1)OC(C)CC2NC(=O)c1ccc(C(F)(F)F)[nH]c1=O (stereo not drawn) [Compound 405, N-(2,7-dimethylchroman-4-yl)-2-oxo-6-(trifluoromethyl)-1,2-dihydropyridine-3-carboxamide]
0.23 | 28.8 | 54 | CCCC1CC(NC(=O)c2ccc(C(F)(F)F)[nH]c2=O)c2ccc(C)cc2O1 (stereo not drawn) [Compound 406, N-(7-methyl-2-propylchroman-4-yl)-2-oxo-6-(trifluoromethyl)-1,2-dihydropyridine-3-carboxamide]
0.16 | 12.5 | 69.2 | CCC1CC(NC(=O)c2ccc(C(F)(F)F)[nH]c2=O)c2ccc(C)cc2O1 (stereo not drawn) [Compound 407, N-(2-ethyl-7-methylchroman-4-yl)-2-oxo-6-(trifluoromethyl)-1,2-dihydropyridine-3-carboxamide]
0.25 | 8.59 | 17.5 | O=C(NC1c2ccccc2-c2ccc(C(F)(F)F)cc21)c1ccc(C(F)(F)F)[nH]c1=O (stereo not drawn) [Compound 414, 2-oxo-6-(trifluoromethyl)-N-(2-(trifluoromethyl)-9H-fluoren-9-yl)-1,2-dihydropyridine-3-carboxamide]
0.07 | 20 | 14.8 | COc1ccc2c(c1)C(NC(=O)c1ccc(C(F)(F)F)[nH]c1=O)c1ccccc1-2 (stereo not drawn) [Compound 416, N-(2-methoxy-9H-fluoren-9-yl)-2-oxo-6-(trifluoromethyl)-1,2-dihydropyridine-3-carboxamide]
0.1 | 13.5 | 47.9 | Cc1ccc2c(c1)C(NC(=O)c1ccc(C(F)(F)F)[nH]c1=O)c1ccccc1-2 (stereo not drawn) [Compound 417, N-(2-methyl-9H-fluoren-9-yl)-2-oxo-6-(trifluoromethyl)-1,2-dihydropyridine-3-carboxamide]

Compound | IC50 (HSD17B13) [µM] | IC50 (HSD17B1) [µM] | IC50 (HSD17B2) [µM]
Cc1ccc2c(c1)Sc1cc(C)ccc1C2NC(=O)c1ccc(C(F)F)[nH]c1=O [Compound 282, 6-(difluoromethyl)-N-(3,6-dimethyl-9H-thioxanthen-9-yl)-2-oxo-1,2-dihydropyridine-3-carboxamide] | 0.14 | > 30 | > 100
Cc1ccc2c(c1)OC1CCCCC1C2NC(=O)c1ccc(C(F)(F)F)[nH]c1=O (stereo not drawn) [Compound 409, N-(6-methyl-2,3,4,4a,9,9a-hexahydro-1H-xanthen-9-yl)-2-oxo-6-(trifluoromethyl)-1,2-dihydropyridine-3-carboxamide] | 0.04 | > 30 | 29.7
